Results: patent US8969554B2, “6-acyl-1,2,4-triazine-3,5-dione derivative and herbicides” (Kumiai Chemical Industry Co., Ltd., priority 2010, dated 2015)

Experiments:
Format in all cases: in vivo
Echinochloa oryzicola = test: Herbicidal activity by paddy field soil treatment (Test Example 1); parameters: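 index 0 to 10 in 10% steps of herbicidal effect with 10 meaning complete death and 0 below 10%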; conditions: 1000 g of effective component per hectare, evaluated on day 21 after the treatment, criteria of Table 72
Method in brief: (§1)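 Flooded-paddy pre-emergence assay at 1000 g a.i./ha, applied to the water surface one day after sowing; visual herbicidal score at day 21 in greenhouse.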

Scirpus juncoides Rocxb. = test: as above; parameters: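 index 0 to 10 in 10% steps of herbicidal effect with 10 meaning complete death and 0 below 10%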; conditions: applied on water surface, 1000 g of effective component per hectare, day 21 after the treatment
Method in brief: as §1

Monochoria vaginalis = test: as above; parameters: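 index 0 to 10 in 10% steps of herbicidal effect with 10 meaning complete death and 0 below 10%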; conditions: 1000 g of effective component per hectare, evaluated on day 21 after the treatment, criteria of Table 72
Method in brief: as §1

Indian millet [1] = test: Herbicidal activity by field foliage treatment (Test example 3); parameters: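 index 0 to 10 in 10% steps of herbicidal effect with 10 meaning complete death and 0 below 10%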; conditions: 1000 g effective component per hectare, day 14 after the treatment
Method in brief: (§2)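 Test plants, grown from seed for two weeks in a greenhouse, are treated by foliar application of a wettable-powder formulation in water at a rate of 1000 g effective component per hectare. Damage is assessed 14 days later.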

A. retroflexus [2] = test: as above; parameters: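 index 0 to 10 in 10% steps of herbicidal effect with 10 meaning complete death and 0 below 10%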; conditions: 1000 g effective component per hectare, day 14 after the treatment
Method in brief: as §2

Setaria viridis = test: as above; conditions: 1000 g effective component per hectare, day 14 after the treatment;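 note: index 0 to 10 in 10% steps of herbicidal effect with 10 meaning complete death and 0 below 10%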
Method in brief: (§3)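 Potted field-soil plants grown 2 weeks in a greenhouse were sprayed over the whole foliage with diluted wettable powder at 1000 L/ha, delivering 1000 g active ingredient per hectare. Herbicidal effect scored by visual criteria 14 days after treatment.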

Echinochloa crus-galli [3] = test: as above; parameters: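 index 0 to 10 in 10% steps of herbicidal effect with 10 meaning complete death and 0 below 10%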; conditions: 1000 g effective component per hectare, day 14 after the treatment
Method in brief: as §3

foxtail = test: Herbicidal activity by field soil treatment (Test example 2); conditions: 1000 g effective component per hectare, day 21 after the treatment;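 note: index 0 to 10 in 10% steps of herbicidal effect with 10 meaning complete death and 0 below 10%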
Method in brief: (§4)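 A wettable powder formulation, diluted with water, is applied to soil over just-sown seeds at an effective rate of 1000 g/ha. Effects are judged 21 days later after greenhouse growth.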

Indian millet [4] = test: as above; parameters: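 index 0 to 10 in 10% steps of herbicidal effect with 10 meaning complete death and 0 below 10%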; conditions: 1000 g effective component per hectare, day 21 after the treatment
Method in brief: as §4

A. retroflexus [5] = test: as above; parameters: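 index 0 to 10 in 10% steps of herbicidal effect with 10 meaning complete death and 0 below 10%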; conditions: 1000 g effective component per hectare, day 21 after the treatment
Method in brief: as §4

Echinochloa crus-galli [6] = test: as above; parameters: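 index 0 to 10 in 10% steps of herbicidal effect with 10 meaning complete death and 0 below 10%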; conditions: 1000 g effective component per hectare, day 21 after the treatment
Method in brief: as §4

Structure (SMILES) | Herbicidal effects index number, Echinochloa oryzicola (Echinochloa oryzicola) | herbicidal effect index, S. juncoides Rocxb. (Scirpus juncoides Rocxb.) | Herbicidal effects index number, Monochoria vaginalis (Monochoria vaginalis) | herbicidal effect index, Abutilon theophrasti (Indian millet [1]) | herbicidal effect index, Amaranthus retroflexus (A. retroflexus [2]) | herbicidal effect index, Setaria viridis (Setaria viridis) | herbicidal effect index, Echinochloa crus-galli (Echinochloa crus-galli [3]) | herbicidal effect index, Setaria viridis (foxtail) | herbicidal effect index, Abutilon theophrasti (Indian millet [4]) | herbicidal effect index, Amaranthus retroflexus (A. retroflexus [5]) | herbicidal effect index, Echinochloa crus-galli (Echinochloa crus-galli [6])
Cc1ncccc1-n1c(=O)c(C(=O)C2=C(O)CCCC2=O)nn(C)c1=O [I-277] | 9 | 10 | 9 | 9 | 10 | 9 | 10 | 8 | 7 | 8 | 8
Cn1nc(C(=O)C2=C(O)CCCC2=O)c(=O)n(-c2cccc([N+](=O)[O-])c2)c1=O [I-67] | 10 | 10 | 10 | 10 | 10 | 10 | 10 | 10 | 10 | 10 | 10
Cc1cccc(OC(F)(F)F)c1-n1c(=O)c(C(=O)C2=C(O)CCCC2=O)nn(C)c1=O [I-285] | 10 | 10 | 10 | 7 | 8 | 9 | 9 | 10 | 10 | 10 | 10
Cn1nc(C(=O)C2=C(O)CCCC2=O)c(=O)n(C)c1=O [I-1] | 10 | 10 | 10 | 9 | 10 | 8 | 8 | 7 | 9 | 10 | 8
Cn1nc(C(=O)C2=C(O)CCCC2=O)c(=O)n(-c2ccc([N+](=O)[O-])cc2)c1=O [I-68] | 10 | 10 | 10 | 10 | 10 | 8 | 10 | 10 | 10 | 10 | 10
Cn1nc(C(=O)C2=C(O)CCCC2=O)c(=O)n(-c2ccccn2)c1=O [I-179] | 10 | 10 | 10 | 10 | 10 | 10 | 10 | 10 | 10 | 9 | 10
Cc1cccc(-n2c(=O)c(C(=O)C3=C(O)CCCC3=O)nn(C)c2=O)c1Cl [I-127] | 10 | 10 | 10 | 9 | 10 | 10 | 10 | 8 | 10 | 10 | 10
